The source of these data is patent US20150141473A1, “PHARMACEUTICAL DOSAGE FORMS OF TIZANIDINE AND ADMINISTRATION ROUTES THEREOF” (priority 2012, published 2015).

A word on the Tmax: it is the time at which the peak concentration occurs.

For data set [1] the following is noted: rabbits, 3.00 mg/kg of tizanidine hydrochloride, preliminary.
For data set [2] the following is noted: background, cited from earlier work.
For data set [3] the following is noted: animal data, local administration; cited from earlier work.
For data set [4] the following is noted: aqueous solution 45.00 mg/mL, pH 4.8. On the procedure: The proposed formulations are calculated for a single puff of 50 μL/nostril.
The nature of data set [5]: pH of the formulations / aqueous solutions. Format: physicochemical. Particulars: aqueous solutions without buffer.
For data set [6] the following is noted: highest concentration, 14 days of treatment tid in rabbits.
Data set [7] can be described thus: Human absorption: Tizaspray intranasally vs Sirdalud tablets, randomised cross-over, plasma levels of tizanidine by LC/MS/MS over 12 hours. The conditions noted are these: highest concentration, single administration in humans.
Protocol: The plasma levels of tizanidine were determined by LC/MS/MS over 12 hours from the administration.
R=Sirdalud tablet; T1=1*70 μL/puff by intranasal route; T2=2*70 μL/puff by intranasal route.

Structures can show the parent of a compound that is named as a salt.

For the compound `Clc1ccc2nsnc2c1NC1=NCCN1` [Tizanidine, 5-chloro-N-(4,5-dihydro-1H-imidazol-2-yl)-2,1,3-benzothia-diazol-4-amine], the “bioavailability by intranasal route” value in data set [1] (IN vs IM) is “close to that of intramuscular route (IM)”. The intranasal absorption result in data set [1] (IN, without any enhancer) is recorded as “rapidly absorbed”. In addition, in data set [2] (2 or 4 mg tablets), the “absorption by oral route” value is “well and rapidly absorbed by oral route”. Moreover, in data set [2] (known pharmacokinetic profile), the T1/2z was 1 to 2 h and the Tmax is 1 to 2 h. Further, the first-pass effect result in data set [2] (oral route) is recorded as “extensive first-pass effect”. The “activity compared with clonidine” value in data set [3] was “equivalent activity of tizanidine and clonidine”.
Consider `Clc1ccc2nsnc2c1NC1=NCCN1` [tizanidine hydrochloride], for which the “tolerability on the nasal mucosa (redness or pain)” value in data set [4] is recorded as “tolerated by the nasal mucosa without any local side effect”. For the same compound, in data set [5], the “pH of aqueous solutions” value is 4.8. The “tolerability on the nasal mucosa” value in data set [6] is listed as “well tolerated on the nasal mucosa”. In addition, the “absorption by intranasal route” value in data set [7] is “rapidly and completely absorbed”.
